Patent US20220370440A1 (Lead Discovery Center GmbH, priority 2018, published 2022)
pIC50: −log10 of the molar value.

Columns and labels:
[1] = biological target: T1, HER2 INS YVMA (Homo sapiens, UniProt P04626, INS775YVMA); assay: Lance Kinase Activity Assay, HER2 INS YVMA (Her2 Exon 20 INSYVMA Lance); type: biochemical; conditions: biochemical Lance assay
T1 construct: purchased DPF
Outline: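 IC50 was fitted to sigmoidal curves of TR-FRET signal (665 and 615 nm emission after 340 nm excitation) from an Eu anti-phospho antibody binding the phosphorylated ULight peptide. The ATP-started reaction ran 1 h at RT and was then quenched with 10 mM EDTA plus antibody for a further 1 h. Compounds were tested as 8-point, 3-fold dilutions.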

[2] = biological target: Her2 Exon 20 INSYVMA Ba/F3 (Homo sapiens, UniProt P04626, DUP772-775, cells depend on it); assay: Her2 Exon 20 INSYVMA Ba/F3 CellTiter-Glo; type: cell-based; conditions: CellTiter-Glo, 72 h, read-out: Her2 Exon 20 INSYVMA Ba/F3 CTG IC50
Outline: (§1)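 Ba/F3 cells were seeded, left 24 h at 37 °C/5% CO2, then exposed to compound dilutions in DMSO for 72 h. Viability was read as ATP luminescence (CellTiter-Glo) and IC50 fitted from dose–response curves; DMSO and 10 μM staurosporine defined the controls, and plates needed Z′ ≥0.5.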

[3] = biological target: EGFR Exon 20 INSNPH Ba/F3 (Homo sapiens, UniProt P00533, DUP771-773, cells depend on it); assay: EGFR Exon 20 INSNPH Ba/F3 CellTiter-Glo; type: cell-based; conditions: CellTiter-Glo, 72 h, read-out: EGFR Exon 20 INSNPH Ba/F3 CTG IC50
EGFR Exon 20 INSNPH Ba/F3, sequence (P00533 with tags, fused parts or gaps DUP771-773): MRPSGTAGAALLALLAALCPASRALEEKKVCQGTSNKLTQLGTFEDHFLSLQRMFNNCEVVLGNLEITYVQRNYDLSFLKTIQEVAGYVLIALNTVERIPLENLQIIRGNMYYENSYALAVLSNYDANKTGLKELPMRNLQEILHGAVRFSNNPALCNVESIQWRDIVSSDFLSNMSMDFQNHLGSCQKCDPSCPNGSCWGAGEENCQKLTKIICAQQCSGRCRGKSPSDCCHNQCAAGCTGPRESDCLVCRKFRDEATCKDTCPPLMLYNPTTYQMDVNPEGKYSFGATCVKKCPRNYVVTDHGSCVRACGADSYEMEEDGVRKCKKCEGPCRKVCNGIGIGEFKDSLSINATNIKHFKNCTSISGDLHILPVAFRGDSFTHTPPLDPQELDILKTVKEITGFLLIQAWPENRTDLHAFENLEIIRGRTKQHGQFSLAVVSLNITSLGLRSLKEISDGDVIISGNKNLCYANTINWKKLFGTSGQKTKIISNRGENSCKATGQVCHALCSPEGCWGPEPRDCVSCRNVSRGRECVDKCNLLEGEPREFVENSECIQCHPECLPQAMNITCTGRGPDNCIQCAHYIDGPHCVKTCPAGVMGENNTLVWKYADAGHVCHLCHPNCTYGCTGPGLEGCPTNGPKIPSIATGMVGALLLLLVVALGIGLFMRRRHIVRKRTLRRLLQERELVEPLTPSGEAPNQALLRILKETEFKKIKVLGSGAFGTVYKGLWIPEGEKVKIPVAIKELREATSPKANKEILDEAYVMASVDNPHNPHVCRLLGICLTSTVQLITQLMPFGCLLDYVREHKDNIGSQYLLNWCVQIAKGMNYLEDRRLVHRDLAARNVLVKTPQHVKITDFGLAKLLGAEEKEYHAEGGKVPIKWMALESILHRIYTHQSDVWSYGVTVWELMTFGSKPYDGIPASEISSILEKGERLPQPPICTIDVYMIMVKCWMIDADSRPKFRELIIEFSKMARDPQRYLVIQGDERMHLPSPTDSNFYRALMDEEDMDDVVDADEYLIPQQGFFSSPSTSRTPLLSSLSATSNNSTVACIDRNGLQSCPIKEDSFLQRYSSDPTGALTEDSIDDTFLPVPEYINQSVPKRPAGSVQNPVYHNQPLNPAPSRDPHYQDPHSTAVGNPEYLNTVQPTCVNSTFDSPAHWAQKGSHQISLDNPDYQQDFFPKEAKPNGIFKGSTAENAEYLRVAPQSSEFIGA
Outline: as §1

[4] = biological target: EGFR T790ML858R (Homo sapiens, UniProt P00533, L858R/T790M); assay: EGFR T790ML858R Lance assay; type: biochemical
EGFR T790ML858R, sequence (P00533 25-1210 T790M/L858R): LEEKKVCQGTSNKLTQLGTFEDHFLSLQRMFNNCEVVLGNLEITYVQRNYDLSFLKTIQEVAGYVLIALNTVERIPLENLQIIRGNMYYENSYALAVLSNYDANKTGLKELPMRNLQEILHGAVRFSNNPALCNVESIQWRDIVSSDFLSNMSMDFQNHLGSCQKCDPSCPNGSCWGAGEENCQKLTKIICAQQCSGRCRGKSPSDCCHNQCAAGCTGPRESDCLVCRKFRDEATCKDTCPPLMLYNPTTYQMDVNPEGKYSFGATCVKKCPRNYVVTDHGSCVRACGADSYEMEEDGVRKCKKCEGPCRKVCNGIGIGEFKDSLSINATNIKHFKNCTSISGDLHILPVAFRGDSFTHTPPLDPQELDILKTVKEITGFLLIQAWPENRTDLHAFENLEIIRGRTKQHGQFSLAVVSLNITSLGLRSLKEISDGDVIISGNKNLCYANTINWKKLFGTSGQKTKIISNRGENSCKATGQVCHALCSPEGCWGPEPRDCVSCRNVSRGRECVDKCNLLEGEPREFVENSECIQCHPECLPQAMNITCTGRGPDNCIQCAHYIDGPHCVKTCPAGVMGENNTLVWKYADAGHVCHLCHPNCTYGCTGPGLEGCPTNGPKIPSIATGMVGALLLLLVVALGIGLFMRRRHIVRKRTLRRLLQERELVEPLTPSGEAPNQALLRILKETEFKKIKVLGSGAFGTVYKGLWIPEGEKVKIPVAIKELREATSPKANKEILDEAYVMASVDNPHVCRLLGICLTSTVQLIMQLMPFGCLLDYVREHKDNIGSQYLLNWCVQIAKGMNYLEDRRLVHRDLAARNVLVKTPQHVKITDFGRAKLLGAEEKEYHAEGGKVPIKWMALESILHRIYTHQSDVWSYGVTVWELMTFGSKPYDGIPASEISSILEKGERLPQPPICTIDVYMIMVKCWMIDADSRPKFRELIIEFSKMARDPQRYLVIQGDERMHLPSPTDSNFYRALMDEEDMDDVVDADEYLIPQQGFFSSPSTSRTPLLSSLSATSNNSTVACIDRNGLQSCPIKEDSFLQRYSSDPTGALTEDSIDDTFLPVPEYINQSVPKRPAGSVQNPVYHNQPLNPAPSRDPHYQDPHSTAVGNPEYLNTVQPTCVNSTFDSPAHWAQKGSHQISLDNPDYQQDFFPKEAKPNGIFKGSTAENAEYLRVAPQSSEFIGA
Description: (§2) Inhibition is indicated as […] [nM] (“−”=not measured). Compounds having an activity designated as “A” provided an IC50≤100 nM; compounds having an activity designated as “B” provided an 100 nM<IC50≤500 nM; compounds having an activity designated as “C” provided an 500 nM<IC50≤1000 nM; compounds having an activity designated as “D” provided an 1000 nM<IC50≤100000 nM; and compounds having an activity designated as “E” provided an IC50>10000 nM.

[5] = biological target: EGFR wt (Homo sapiens, UniProt P00533); assay: EGFR wt Lance assay; type: biochemical
EGFR wt, sequence (P00533 25-1210): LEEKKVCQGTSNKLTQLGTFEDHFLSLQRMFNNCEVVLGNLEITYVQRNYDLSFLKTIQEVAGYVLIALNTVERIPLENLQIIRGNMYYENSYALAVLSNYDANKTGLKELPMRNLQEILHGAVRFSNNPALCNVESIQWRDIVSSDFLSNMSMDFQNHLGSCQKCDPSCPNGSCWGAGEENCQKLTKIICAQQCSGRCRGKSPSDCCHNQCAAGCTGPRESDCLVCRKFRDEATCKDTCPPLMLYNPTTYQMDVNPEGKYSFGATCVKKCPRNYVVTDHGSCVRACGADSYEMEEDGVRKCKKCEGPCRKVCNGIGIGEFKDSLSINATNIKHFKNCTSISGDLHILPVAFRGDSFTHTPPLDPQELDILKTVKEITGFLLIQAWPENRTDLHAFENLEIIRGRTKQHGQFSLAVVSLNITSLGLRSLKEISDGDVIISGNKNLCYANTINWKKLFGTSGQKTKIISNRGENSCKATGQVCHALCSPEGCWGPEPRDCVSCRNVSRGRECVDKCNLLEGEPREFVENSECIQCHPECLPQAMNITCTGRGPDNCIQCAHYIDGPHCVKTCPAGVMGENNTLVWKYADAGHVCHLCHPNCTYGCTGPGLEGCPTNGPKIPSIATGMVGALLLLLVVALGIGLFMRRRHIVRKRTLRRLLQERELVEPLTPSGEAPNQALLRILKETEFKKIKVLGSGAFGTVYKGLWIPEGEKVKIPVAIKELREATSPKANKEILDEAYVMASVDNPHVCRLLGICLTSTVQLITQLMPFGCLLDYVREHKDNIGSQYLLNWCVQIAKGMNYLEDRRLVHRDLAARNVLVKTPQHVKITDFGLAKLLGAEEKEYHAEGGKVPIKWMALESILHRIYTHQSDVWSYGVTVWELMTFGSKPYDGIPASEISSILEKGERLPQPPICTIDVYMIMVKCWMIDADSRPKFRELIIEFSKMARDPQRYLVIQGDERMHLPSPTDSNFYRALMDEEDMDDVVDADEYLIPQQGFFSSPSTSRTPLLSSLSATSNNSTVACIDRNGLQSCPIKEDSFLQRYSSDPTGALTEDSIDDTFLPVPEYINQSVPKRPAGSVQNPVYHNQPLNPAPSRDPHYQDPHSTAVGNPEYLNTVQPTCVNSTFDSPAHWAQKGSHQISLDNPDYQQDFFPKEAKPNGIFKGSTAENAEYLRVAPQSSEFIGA
Description: as §2

[6] = test system: H1975; assay: H1975 CellTiter-Glo; type: cell-based; conditions: Homo sapiens, NCI-H1975; 72 h compound incubation; read-out: H1975 CTG IC50
Outline: (§3)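 Seed cells; incubate 24 h at 37° C., 5% CO2; add compound in DMSO over a concentration range; incubate 72 h; add CellTiter-Glo reagent, stabilise 10 min at room temperature; read luminescence; fit IC50.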

[7] = test system: H1781; assay: H1781 CellTiter-Glo; type: cell-based; conditions: NCI-H1781; 72 h compound incubation; read-out: H1781 CTG IC50
Outline: as §3

[8] = test system: A431; assay: A431 CellTiter-Glo; type: cell-based; conditions: Homo sapiens, A-431; 72 h compound incubation; read-out: A431 CTG IC50
Outline: as §3

[9] = Metabolic stability in mouse liver microsomes without cofactor NADPH; type: in vitro ADME; conditions: 3 μM test compound, mouse liver microsomes, without NADPH, 50 min, 37° C., LC-MS/MS
Outline: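 Cofactor-free incubation: no NADPH added to mouse liver microsomes, with compound at 3 μM and 37° C. Remaining parent was quantified by LC-MS/MS at time points up to 50 minutes to track depletion.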

T1 sequence (P04626 with tags, fused parts or gaps INS775YVMA): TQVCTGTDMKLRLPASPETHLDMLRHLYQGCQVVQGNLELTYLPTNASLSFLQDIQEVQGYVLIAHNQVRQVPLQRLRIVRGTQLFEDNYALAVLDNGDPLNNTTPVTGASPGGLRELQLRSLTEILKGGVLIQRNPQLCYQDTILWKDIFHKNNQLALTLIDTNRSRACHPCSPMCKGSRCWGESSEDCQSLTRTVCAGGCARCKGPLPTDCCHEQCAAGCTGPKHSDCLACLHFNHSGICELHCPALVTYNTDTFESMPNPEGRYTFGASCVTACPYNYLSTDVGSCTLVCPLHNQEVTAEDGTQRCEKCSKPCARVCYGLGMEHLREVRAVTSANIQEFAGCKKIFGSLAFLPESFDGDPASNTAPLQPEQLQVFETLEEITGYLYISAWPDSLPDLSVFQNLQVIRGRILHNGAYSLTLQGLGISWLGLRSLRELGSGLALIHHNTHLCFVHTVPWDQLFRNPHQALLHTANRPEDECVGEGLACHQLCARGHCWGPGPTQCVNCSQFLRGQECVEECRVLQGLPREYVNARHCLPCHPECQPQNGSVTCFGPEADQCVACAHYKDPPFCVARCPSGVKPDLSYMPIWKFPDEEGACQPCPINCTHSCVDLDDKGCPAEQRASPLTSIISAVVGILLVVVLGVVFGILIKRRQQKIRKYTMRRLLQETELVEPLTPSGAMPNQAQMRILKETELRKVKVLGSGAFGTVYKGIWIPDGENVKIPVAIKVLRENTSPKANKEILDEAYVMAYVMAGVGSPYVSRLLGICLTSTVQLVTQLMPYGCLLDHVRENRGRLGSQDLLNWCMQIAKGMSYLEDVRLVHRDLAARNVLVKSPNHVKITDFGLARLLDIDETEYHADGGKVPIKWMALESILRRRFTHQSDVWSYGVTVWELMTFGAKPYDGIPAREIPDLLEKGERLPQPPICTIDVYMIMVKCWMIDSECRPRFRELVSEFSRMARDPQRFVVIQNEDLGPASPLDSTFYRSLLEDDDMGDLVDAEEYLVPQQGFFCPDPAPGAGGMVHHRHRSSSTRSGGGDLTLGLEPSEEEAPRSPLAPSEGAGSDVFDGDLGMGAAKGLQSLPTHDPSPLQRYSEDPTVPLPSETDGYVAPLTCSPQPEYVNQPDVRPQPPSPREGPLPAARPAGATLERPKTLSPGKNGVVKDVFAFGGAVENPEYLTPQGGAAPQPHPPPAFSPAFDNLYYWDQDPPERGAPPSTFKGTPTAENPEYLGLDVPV

Row | SMILES | pIC50 [1] | GI50 [2] | GI50 [3] | pIC50 [4] | pIC50 [5] | pIC50 [6] | pIC50 [7] | pIC50 [8] | Stability in presence of mouse liver microsomes without cofactor NADPH [% remaining after 50 min] [9]
1 | C=CC(=O)Nc1cc(-c2c(-c3ccc(C4CCN(C)CC4)cc3)[nH]c3ncccc23)ccc1C [Example 79, N-(2-methyl-5-(2-(4-(1-methylpiperidin-4-yl)phenyl)-1H-pyrrolo[2,3-b]pyridin-3-yl)phenyl)acrylamide] | ≥ 7.00 | 0.1 to 0.5 µM | 0.1 to 0.5 µM | ≥ 7.00 | ≥ 7.00 | ≥ 7.00 | 6.00 to 6.30 | 6.30 to 7.00 | >99 % remaining after 50 min
2 | C=CC(=O)Nc1cc(-c2c(-c3ccc(CN4CCOCC4)cc3)[nH]c3nccc(Cl)c23)ccc1C [Example 5, N-(5-(4-chloro-2-(4-(morpholinomethyl)phenyl)-1H-pyrrolo[2,3-b]pyridin-3-yl)-2-methylphenyl)acrylamide] | ≥ 7.00 | 0.1 to 0.5 µM | 0.1 to 0.5 µM | ≥ 7.00 | ≥ 7.00 | ≥ 7.00 | < 5.00 | < 5.00 | >99 % remaining after 50 min
3 | C=CC(=O)Nc1cc(-c2c(-c3cccc(CN4CCN(C)CC4)c3)[nH]c3nccc(OC)c23)ccc1C [Example 76, N-(5-(4-methoxy-2-(3-((4-methylpiperazin-1-yl)methyl)phenyl)-1H-pyrrolo[2,3-b]pyridin-3-yl)-2-methylphenyl)acrylamide] | ≥ 7.00 | 0.1 to 0.5 µM | 0.1 to 0.5 µM | ≥ 7.00 | ≥ 7.00 | ≥ 7.00 | 6.00 to 6.30 | 6.00 to 6.30 | >99 % remaining after 50 min
